The values that follow come from US10450328B2, “Crystals of thiadiazole derivative DPP-IV inhibitors and uses thereof” (CHIA TAI TIANQING PHARMACEUTICAL GROUP CO., LTD., priority 2015, dated 2019).

In one data set the target is DPP-IV (Homo sapiens, UniProt P27487). As to conditions: result in words; cited from earlier work.
For data set [1] the following is noted: result in words; cited from earlier work.
Data set [2] can be described thus: Stability test: experiments on influencing factors (light irradiation, high temperature, high humidity). The class given is physicochemical. Particulars: for stability: result in words. The text has this: Suitable amounts of the crystalline Form A obtained in Example 2 and the crystalline Form B obtained in Example 3 were taken to carry out experiments on influencing factors according to the methods described in the Chinese Pharmacopoeia, 2010 edition, Part II, Appendix.

A short description of the next data set: Powder fluidity. The class given is physicochemical. Particulars: result in words.
Setting [3] is: High-humidity Test 92.5% RH, 5 days.
Where [4] appears, read: High-humidity Test 92.5% RH, 10 days.
[5] abbreviates: High-temperature Test 40° C., 5 days.
[6] abbreviates: High-temperature Test 40° C., 10 days.
Where [7] appears, read: High-temperature Test 60° C., 5 days.
Setting [8] is: Light Irradiation Test 4500Lux, 5 days.
The mark [9] stands for this setting: Light Irradiation Test 4500Lux, 10 days.
Setting [10] is: High-temperature Test 60° C., 5 days, 60 °C.
Where [11] appears, read: High-temperature Test 60° C., 10 days, 60 °C.

Sequence of DPP-IV (P27487 whole entry, species assumed): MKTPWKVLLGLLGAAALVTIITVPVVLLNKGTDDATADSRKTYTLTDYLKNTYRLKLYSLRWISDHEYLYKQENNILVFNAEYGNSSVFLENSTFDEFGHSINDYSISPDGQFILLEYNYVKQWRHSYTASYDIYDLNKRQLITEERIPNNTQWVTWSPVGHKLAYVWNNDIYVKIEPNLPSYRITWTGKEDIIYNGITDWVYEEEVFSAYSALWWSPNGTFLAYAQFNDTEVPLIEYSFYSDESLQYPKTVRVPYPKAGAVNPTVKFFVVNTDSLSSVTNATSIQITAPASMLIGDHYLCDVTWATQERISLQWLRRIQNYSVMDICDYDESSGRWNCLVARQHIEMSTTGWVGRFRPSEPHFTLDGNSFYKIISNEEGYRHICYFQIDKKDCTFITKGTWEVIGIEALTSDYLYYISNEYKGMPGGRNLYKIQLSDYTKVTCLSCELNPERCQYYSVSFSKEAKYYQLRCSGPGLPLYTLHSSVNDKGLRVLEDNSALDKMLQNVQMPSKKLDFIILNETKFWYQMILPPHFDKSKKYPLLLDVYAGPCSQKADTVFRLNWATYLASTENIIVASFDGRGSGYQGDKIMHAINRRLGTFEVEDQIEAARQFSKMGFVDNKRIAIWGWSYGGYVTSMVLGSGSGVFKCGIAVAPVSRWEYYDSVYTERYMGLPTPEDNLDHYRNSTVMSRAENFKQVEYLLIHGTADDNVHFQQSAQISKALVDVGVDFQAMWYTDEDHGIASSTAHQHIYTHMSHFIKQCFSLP

As for `CC#CCn1c(N2CCC[C@@H](N)C2)nc2c1c(=O)n(Cc1ccc3nsnc3n1)c(=O)n2C` [Compound 7], the “inhibitory activity against DPP-IV” value on DPP-IV is “very good inhibitory activity”. Besides, in data set [1], the half-life in vivo result is on record as “suitable half-life in vivo” and the “metabolic level in vivo” value is given as “very good metabolic level in vivo”.
As to `CC#CCn1c(N2CCC[C@@H](N)C2)nc2c1c(=O)n(Cc1ccc3nsnc3n1)c(=O)n2C` [crystalline Form A], the “Relative Substances Main Peak %” value in data set [2] (0 day) turned out to be 98.78%; in data set [2] (setting [3]), 98.79%; in data set [2] (setting [4]), 98.84%; in data set [2] (setting [5]), 98.72%; in data set [2] (setting [6]), 98.42%; in data set [2] (setting [7]) it was 98.72%. Further, the “Relative Substances Main Peak %” value in data set [2] (High-temperature Test 60° C., 10 days, 60 °C high-temperature test) was found to be 98.74%; in data set [2] (setting [8]) it was 98.09%; in data set [2] (setting [9]), 96.21%. Besides, the “Relative Substances Maximum Single Impurity %” value in data set [2] (0 day) came out at 0.56%; in data set [2] (setting [3]), 0.61%; in data set [2] (setting [4]) it was 0.61%; in data set [2] (setting [5]) it was 0.60%; in data set [2] (setting [6]), 0.61%; in data set [2] (setting [7]) it was 0.60%. The “Relative Substances Maximum Single Impurity %” value is reported as 0.61% in data set [2] (High-temperature Test 60° C., 10 days); 0.51% in data set [2] (setting [8]); 0.70% in data set [2] (setting [9]). Further, the stability result in data set [2] was “excellent stability”. In addition, in “Powder fluidity”, the powder fluidity entry was “good powder fluidity”.
As to `CC#CCn1c(N2CCC[C@@H](N)C2)nc2c1c(=O)n(Cc1ccc3nsnc3n1)c(=O)n2C` [crystalline Form B], the “Relative Substances Main Peak %” value worked out at 99.3% in data set [2] (0 day); 99.36% in data set [2] (setting [3]); 99.4% in data set [2] (setting [4]); 99.38% in data set [2] (setting [5]); 99.44% in data set [2] (setting [6]); 99.33% in data set [2] (setting [10]). Moreover, the entries for the “Relative Substances Main Peak %” value in data set [2] (setting [11]), in data set [2] (setting [8]) and in data set [2] (setting [9]) were 99.12%, 98.98% and 98.2%, respectively. Further, the “Relative Substances Maximum Single Impurity %” value in data set [2] (0 day) was determined as 0.18%; in data set [2] (setting [3]) it was 0.17%; in data set [2] (setting [4]), 0.16%; in data set [2] (setting [5]), 0.17%; in data set [2] (setting [6]), 0.15%; in data set [2] (setting [10]), 0.2%. Further, the “Relative Substances Maximum Single Impurity %” value is recorded as 0.24% in data set [2] (setting [11]), 0.26% in data set [2] (setting [8]) and 0.58% in data set [2] (setting [9]). Moreover, the stability result in data set [2] is “excellent stability”. Also, the powder fluidity entry in the data set “Powder fluidity” is given as “good powder fluidity”.
